Experimental data taken from article PMC12624743 (ACS Infectious Diseases, 2025).
≈ marks a conversion by molar mass, not a printed value.

Columns and labels:
[1] = system: N. gonorrhoeae FA1090 (ATCC 700825); test: MIC by agar dilution, parental strain FA1090; assay type: cell-based; settings: Neisseria gonorrhoeae, ATCC700825, parental strain FA1090, GyrA WT / ParC WT
Protocol: A series of isogenic N. gonorrhoeae strains was constructed that carried the specific target mutations GyrA^A92T or GyrA^D90N either alone or in combination with ParC^D86N or GyrA^S91F/D95G in a ciprofloxacin-susceptible strain, FA1090 (ATCC 700825).
All N. gonorrhoeae isolates were cultured and grown on GC agar plates or in fastidious broth (Remel, 07664). Minimum inhibitory concentration (MIC) of test compounds was determined by an agar dilution method, the reference testing method for N. gonorrhoeae according to the standards of the Clinical and Laboratory Standards Institute and the CDC. MIC values were determined after incubation at 37 °C for 48 h in 5% CO2.

[2] = system: N. gonorrhoeae FA1090-Q1 (GyrA^S91F/D95G, ParC WT); test: MIC by agar dilution, fluoroquinolone-resistant GyrA^S91F/D95G strain; assay type: cell-based; settings: Neisseria gonorrhoeae
Protocol: Minimum inhibitory concentration (MIC) of test compounds was determined by an agar dilution method, the reference testing method for N. gonorrhoeae according to the standards of the Clinical and Laboratory Standards Institute and the CDC.

Q: How did the MIC [1] turn out when `O=C(O)c1cn(C2CC2)c2cc(N3CCNCC3)c(F)cc2c1=O` [ciprofloxacin] was run?
A: Its MIC is 0.004 µg/mL.

Q: And the MIC [2]?
A: The MIC was 0.25 µg/mL (≈ 0.754 µM).
